Measurements from article PMC8962522, “Direct interaction of TrkA/CD44v3 is essential for NGF-promoted aggressiveness of breast cancer cells” (Journal of Experimental & Clinical Cancer Research : CR, 2022).
Entries after “also recorded” stand apart in the source; their conditions may differ.

Legend:
[1] = system: CD44v3 (CD44v3-His, whole cell extracts of COS-7 cells expressing CD44v3); test: MST binding of NGF, TrkA or FGF to CD44v3; conditions: whole cell extracts of COS-7 expressing CD44v3, NGF alone, TrkA alone or FGF control
Description: MST was conducted using an NT.115 A Pico MST instrument (Nano Temper Technologies GmbH) equipped with red and blue filter sets. The TrkA-His tagged extracellular domain protein (Ala 34-Gly423) (9966-TK-050; R&D Systems, United Kingdom), diluted to 200 nM in PBS-T buffer (supplied by the vendor), was labeled using a Monolith His-Tag Labeling Kit with RED-Tris-NTA (Nano Temper). The RED-Tris-NTA dye was diluted in PBS-T to 100 nM. The mix was incubated at RT in the dark for 30 min. Next, an extract expressing CD44v3-labeled protein (CD44v3-His) and ligand and/or TrkA was mixed at a 1:1 ratio and incubated at RT in the dark for 15 min. For the binding check, peptides and TrkA-His were used. Capillaries were filled individually and loaded into the instrument. The data were acquired using high MST power and 100% LED. The data were analyzed using MO Control Software (Nano Temper).
Fig. 1 The C-terminal region of CD44 variant 3 binds to TrkA. A Schematic representation of the CD44 gene and protein structure. Alternative splicing leads to the expression of CD44 variants, thus the insertion of exon 8 leads to the expression of a CD44 protein containing variant 3 (CD44v3) and the insertion of exon 11 leads to the expression of a CD44 containing variant 6 (CD44v6) (B) TrkA/CD44v3 complex formation in COS-7 cells expressing TrkA and CD44v3 was detected by the proximity ligation assay (PLA), which was performed 0, 5 and 30 min after the initiation of NGF (100 ng/ml) treatment. The images represent signals detected by PLA. Quantification of the red spots was performed by ImageJ software (30 randomly chosen fields per condition of three different experiments). Statistical analyses were performed using one-way ANOVA followed by Bonferroni’s posttest. Error bars represent the standard error of the mean (S.E.M.); *** p < 0.001. ns, nonsignificant. C NGF and/or TrkA binding to CD44v3 was measured by microscale thermophoresis (MST). MST experiments were performed on whole cell extracts of COS-7 cells expressing CD44v3. […]

[2] = system: CD44v3 in MDA-MB-231 cells; test: Immunofluorescence, membrane CD44v3; type: cell-based; conditions: MDA-MB-231, immunofluorescence/confocal, NGF
From the text: The CD44v3- and CD44v6-containing isoforms expressing respectively exon 8 and 11(Fig. 1A) can interact with growth factor receptors. Using COS-7 cells with low CD44 and TrkA expression (Supplementary Fig. 1A-D), we differentially expressed TrkA and CD44s or a CD44 variant, either CD44v3 or CD44v6 (Fig. 1B, supplementary Fig. 2). […] Additionally, we evaluated the expression of TrkA and CD44v3 at the membrane level or in cells by immunofluorescence in MDA-MB-231 cells.
Supplementary file 13046_2022_2314_MOESM3_ESM.pdf: Additional file 3: Supplementary Figure 1. Validation of the ectopic expression of CD44 and/or TrkA in COS-7 cells. The expression of all CD44 isoforms (A), CD44 variant 3 (B), CD44 variant 6 (C) and TrkA ([…]; D) was evaluated by RT–qPCR (normalized using PUM-1). No expression of CD44, CD44 variants [3 or 6] or TrkA was detected in COS-7 cells (A-D) compared with that in cells transfected with the expression plasmid carrying each protein. […] Quantification of the PLA results was performed using ImageJ software (30 randomly chosen fields per condition of three different experiments). […] CD44v3 and CD44v6 levels at the plasma membrane were assessed by flow cytometry (A-D). The plasma membrane and total TrkA and CD44v3 levels were also quantified by confocal microscopy (E-H). […] The CD44v3/NGF interaction was evaluated using microscale thermophoresis (MST). […]

NGF: recombinant human β-NGF (Alomone Labs, Israel)
binding to CD44v3 (in words) [1]: No binding; also recorded: NGF did not bind to CD44v3; also recorded: NGF does not bind to CD44v3 | level of CD44v3 at the membrane (in words) [2]: increased at the membrane until 15 min of NGF treatment and then decreased
